Assay results from PubChem BioAssay AID256 (DTP/NCI, 2004).
“And” between values parts separate entries of the source, which are not always exact repeats. Equal values may be shown once. Toxic doses and inconclusive results are not listed.

Tested on: CD2F1 mice, L1210 leukemia ip, survival T/C
Experiment: NCI In Vivo Anticancer Drug Screen. Data for tumor model L1210 Leukemia (intraperitoneal) in CD2F1 (CDF1) mice
Conditions: higher = longer survival
How it was run: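 Transplantable tumor in mice; compound-treated vs vehicle-treated groups. Read-out = treated/control ratio of the measured endpoint.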

[1] = endpoint: mean survival time, dose: 200.0 mg/kg/injection, schedule: Q04DX003 (ip), vehicle: saline
[2] = endpoint: mean survival time, dose: 400.0 mg/kg/injection, schedule: Q04DX003 (ip), vehicle: saline
[3] = endpoint: mean survival time, dose: 100.0 mg/kg/injection, schedule: Q01DX009 (ip), vehicle: saline with Tween-80
[4] = endpoint: mean survival time, dose: 200.0 mg/kg/injection, schedule: Q01DX009 (ip), vehicle: saline with Tween-80
[5] = endpoint: mean survival time, dose: 400.0 mg/kg/injection, schedule: Q01DX009 (ip), vehicle: saline with Tween-80

For `C[C@@]1(CO)[C@H](O)CC[C@@]2(C)[C@H]1CC[C@H]1C[C@@H]3C[C@@]12CC[C@@]3(O)COC(=O)CN`, the T/C (endpoint: median survival time, dose: 0.2 mg/kg/injection, schedule: Q01DX009 (ip), vehicle: saline + alcohol) was 100 % of control, the T/C (endpoint: median survival time, dose: 0.4 mg/kg/injection, schedule: Q01DX009 (ip), vehicle: saline + alcohol) was 106 % of control and the T/C (endpoint: median survival time, dose: 0.8 mg/kg/injection, schedule: Q01DX009 (ip), vehicle: saline + alcohol) was 107 % of control. For the same molecule, the T/C (endpoint: median survival time, dose: 1.6 mg/kg/injection, schedule: Q01DX009 (ip), vehicle: saline + alcohol) was 102 % of control, the T/C (endpoint: median survival time, dose: 5.0 mg/kg/injection, schedule: Q03HX027 (ip), vehicle: saline + alcohol) was 101 % of control and the T/C (endpoint: median survival time, dose: 6.25 mg/kg/injection, schedule: Q01DX009 (ip), vehicle: saline + alcohol) was 105 % of control. The T/C (endpoint: median survival time, dose: 10.0 mg/kg/injection, schedule: Q03HX027 (ip), vehicle: saline + alcohol) was 109 % of control, the T/C (endpoint: median survival time, dose: 12.5 mg/kg/injection, schedule: Q01DX009 (ip), vehicle: saline + alcohol) was 106 % of control and the T/C (endpoint: median survival time, dose: 20.0 mg/kg/injection, schedule: Q03HX027 (ip), vehicle: saline + alcohol) was 116 % of control. For the same molecule, the T/C (endpoint: median survival time, dose: 25.0 mg/kg/injection, schedule: Q01DX005 (ip), vehicle: saline) was 112 % of control, the T/C (endpoint: median survival time, dose: 25.0 mg/kg/injection, schedule: Q01DX009 (ip), vehicle: saline + alcohol) was 107 % of control and the T/C (endpoint: median survival time, dose: 36.0 mg/kg/injection, schedule: Q01DX005 (ip), vehicle: saline) was 115 % of control. For the same molecule, the T/C (endpoint: median survival time, dose: 36.0 mg/kg/injection, schedule: Q01DX009 (ip), vehicle: saline) was 110 % of control, the T/C (endpoint: median survival time, dose: 50.0 mg/kg/injection, schedule: Q01DX005 (ip), vehicle: saline) was 116 % of control and the T/C (endpoint: median survival time, dose: 50.0 mg/kg/injection, schedule: Q01DX009 (ip), vehicle: saline + alcohol) was 116 % of control. The T/C (endpoint: median survival time, dose: 60.0 mg/kg/injection, schedule: Q01DX005 (ip), vehicle: saline) was 116 % of control, the T/C (endpoint: median survival time, dose: 60.0 mg/kg/injection, schedule: Q01DX009 (ip), vehicle: saline) was 110 % of control and the T/C (endpoint: median survival time, dose: 100.0 mg/kg/injection, schedule: Q01DX005 (ip), vehicle: saline) was 122 % of control. The T/C (endpoint: median survival time, dose: 100.0 mg/kg/injection, schedule: Q01DX009 (ip), vehicle: saline) was 151 % of control, the T/C (endpoint: median survival time, dose: 166.6 mg/kg/injection, schedule: Q01DX009 (ip), vehicle: saline) was 153 % of control and the T/C (endpoint: median survival time, dose: 12.5 micrograms/kg/injection, schedule: Q01DX009 (ip), vehicle: saline + alcohol) was 103 % of control. For the same molecule, the T/C (endpoint: median survival time, dose: 25.0 micrograms/kg/injection, schedule: Q01DX009 (ip), vehicle: saline + alcohol) was 103 % of control, the T/C (endpoint: median survival time, dose: 50.0 micrograms/kg/injection, schedule: Q01DX009 (ip), vehicle: saline + alcohol) was 103 % of control and the T/C (endpoint: median survival time, dose: 100.0 micrograms/kg/injection, schedule: Q01DX009 (ip), vehicle: saline + alcohol) was 101 % of control. The T/C (endpoint: median survival time, dose: 200.0 micrograms/kg/injection, schedule: Q01DX009 (ip), vehicle: saline + alcohol) was 102 % of control.
`CN(C)N=Nc1c(-c2cccs2)n[nH]c1C(F)(F)F` was tested, and the T/C (endpoint: mean survival time, dose: 75.0 mg/kg/injection, schedule: Q01DX001 (ip), vehicle: other) was 103 % of control, the T/C (endpoint: mean survival time, dose: 150.0 mg/kg/injection, schedule: Q01DX001 (ip), vehicle: other) was 103 % of control and the T/C (endpoint: mean survival time, dose: 300.0 mg/kg/injection, schedule: Q01DX001 (ip), vehicle: other) was 105 % of control.
For `CC(=O)OCc1ccc(/C=N/Nc2ccc([N+](=O)[O-])cc2[N+](=O)[O-])cc1Br`, the T/C [1] was 108 % of control and the T/C [2] was 100 % of control.
In the case of `COC(=O)C(CCSC)NC(=O)C(C)NC(=O)OCc1ccccc1` (stereo unspecified), the T/C [3] is reported as 98 % of control, the T/C [4] is reported as 95 % of control and the T/C [5] is reported as 95 % of control.
For `[N-]=[N+]=CC(=O)NCC(=O)NCCNCCO`, the T/C (endpoint: mean survival time, dose: 400.0 mg/kg/injection, schedule: Q01DX009 (ip), vehicle: other) was 156 % of control, the T/C (endpoint: mean survival time, dose: 600.0 mg/kg/injection, schedule: Q01DX009 (ip), vehicle: other) was 164 % of control and the T/C (endpoint: mean survival time, dose: 800.0 mg/kg/injection, schedule: Q01DX009 (ip), vehicle: other) was 155 % of control.
With `NC(=O)c1csc(C2OC(CO)C(O)C2O)[n+]1[O-]` (stereo unspecified) the T/C (endpoint: median survival time, dose: 9.38 mg/kg/injection, schedule: Q01DX005 (ip), vehicle: saline) was 102 % of control, the T/C (endpoint: median survival time, dose: 18.75 mg/kg/injection, schedule: Q01DX005 (ip), vehicle: saline) was 101 % of control and the T/C (endpoint: median survival time, dose: 37.5 mg/kg/injection, schedule: Q01DX005 (ip), vehicle: saline) was 103 % of control. For the same molecule, the T/C (endpoint: median survival time, dose: 75.0 mg/kg/injection, schedule: Q01DX005 (ip), vehicle: saline) was 104 % of control and the T/C (endpoint: median survival time, dose: 150.0 mg/kg/injection, schedule: Q01DX005 (ip), vehicle: saline) was 104 % of control.
`CC(=O)OCC1(C)NC(=O)c2ccccc2O1` (stereo unspecified) was tested, and the T/C (endpoint: mean survival time, dose: 12.5 mg/kg/injection, schedule: Q01DX009 (ip), vehicle: saline with Tween-80) was 93 % of control and 112 % of control, the T/C (endpoint: mean survival time, dose: 25.0 mg/kg/injection, schedule: Q01DX009 (ip), vehicle: saline with Tween-80) was 93 % of control and 101 % of control and the T/C (endpoint: mean survival time, dose: 50.0 mg/kg/injection, schedule: Q01DX009 (ip), vehicle: saline with Tween-80) was 98 % of control and 103 % of control. The T/C [3] was 118 % of control and 100 % of control, the T/C [4] was 95 % of control and 106 % of control and the T/C [5] was 115 % of control.
`CCCCCCCCCCCCCCCCCCNC(=O)Nc1ccc(C)cc1C` was tested, and the T/C (endpoint: mean survival time, dose: 100.0 mg/kg/injection, schedule: Q01DX009 (ip), vehicle: saline + alcohol) was 98 % of control, the T/C (endpoint: mean survival time, dose: 100.0 mg/kg/injection, schedule: Q04DX003 (ip), vehicle: saline + alcohol) was 89 % of control and the T/C (endpoint: mean survival time, dose: 200.0 mg/kg/injection, schedule: Q01DX009 (ip), vehicle: saline + alcohol) was 104 % of control. The T/C (endpoint: mean survival time, dose: 200.0 mg/kg/injection, schedule: Q04DX003 (ip), vehicle: saline + alcohol) was 100 % of control, the T/C (endpoint: mean survival time, dose: 400.0 mg/kg/injection, schedule: Q01DX009 (ip), vehicle: saline + alcohol) was 107 % of control and the T/C (endpoint: mean survival time, dose: 400.0 mg/kg/injection, schedule: Q04DX003 (ip), vehicle: saline + alcohol) was 89 % of control.
With `CC(=O)OCC1OC(OC(C)=O)C(OC(C)=O)C(OC(C)=O)C1OC(C)=O` (stereo unspecified) the T/C (endpoint: mean survival time, dose: 100.0 mg/kg/injection, schedule: Q04DX003 (ip), vehicle: saline) was 95 % of control, the T/C [1] was 98 % of control and the T/C [2] was 97 % of control.
With `O=C(O)COc1ccc([N+](=O)[O-])cc1` the T/C [3] was 101 % of control, the T/C [4] was 94 % of control and the T/C [5] was 101 % of control.
In the case of `CC1(C)C2=CCCC3(OCCO3)C2(C)CCC1O` (stereo unspecified), the T/C [3] is reported as 104 % of control, the T/C (endpoint: mean survival time, dose: 100.0 mg/kg/injection, schedule: Q04DX003 (ip), vehicle: saline with Tween-80) is reported as 98 % of control and the T/C [4] is reported as 106 % of control. The T/C (endpoint: mean survival time, dose: 200.0 mg/kg/injection, schedule: Q04DX003 (ip), vehicle: saline with Tween-80) was 98 % of control, the T/C [5] was 98 % of control and the T/C (endpoint: mean survival time, dose: 400.0 mg/kg/injection, schedule: Q04DX003 (ip), vehicle: saline with Tween-80) was 101 % of control.
For `CCC(CNCC(=O)O)(C(=O)O)C(=O)O`, the T/C (endpoint: mean survival time, dose: 12.5 mg/kg/injection, schedule: Q04DX002 (ip), vehicle: saline with Tween-80) was 104 % of control, the T/C (endpoint: mean survival time, dose: 25.0 mg/kg/injection, schedule: Q04DX002 (ip), vehicle: saline with Tween-80) was 93 % of control and the T/C (endpoint: mean survival time, dose: 50.0 mg/kg/injection, schedule: Q04DX002 (ip), vehicle: saline with Tween-80) was 111 % of control.
With `CC(=O)OCC1OC(n2cnc3c(NC(=O)c4ccccc4)ncnc32)C(OC(C)=O)C1OC(C)=O` (stereo unspecified) the T/C (endpoint: mean survival time, dose: 12.5 mg/kg/injection, schedule: Q01DX005 (ip), vehicle: distilled water + Tween-80) was 93 % of control, the T/C (endpoint: mean survival time, dose: 25.0 mg/kg/injection, schedule: Q01DX005 (ip), vehicle: distilled water + Tween-80) was 100 % of control and the T/C (endpoint: mean survival time, dose: 50.0 mg/kg/injection, schedule: Q01DX005 (ip), vehicle: distilled water + Tween-80) was 88 % of control. The T/C (endpoint: mean survival time, dose: 100.0 mg/kg/injection, schedule: Q01DX005 (ip), vehicle: distilled water + Tween-80) was 94 % of control.
With `CCCCNc1ncnc2snnc12` the T/C (endpoint: mean survival time, dose: 100.0 mg/kg/injection, schedule: Q01DX001 (ip), vehicle: Klucel (hydroxypropylcellulose) (HPC)) was 101 % of control, the T/C (endpoint: mean survival time, dose: 200.0 mg/kg/injection, schedule: Q01DX001 (ip), vehicle: Klucel (hydroxypropylcellulose) (HPC)) was 98 % of control and the T/C (endpoint: mean survival time, dose: 400.0 mg/kg/injection, schedule: Q01DX001 (ip), vehicle: Klucel (hydroxypropylcellulose) (HPC)) was 104 % of control.
For `O=[N+]([O-])c1ccc(OC(=S)c2ccccc2)cc1`, the T/C (endpoint: mean survival time, dose: 100.0 mg/kg/injection, schedule: Q04DX002 (ip), vehicle: saline with Tween-80) was 96 % of control and the T/C (endpoint: mean survival time, dose: 200.0 mg/kg/injection, schedule: Q04DX002 (ip), vehicle: saline with Tween-80) was 96 % of control.
`Nc1ncnc2c1ccn2C1OC2COP(=O)(O)OC2C1O` (stereo unspecified) was tested, and the T/C (endpoint: mean survival time, dose: 5.0 mg/kg/injection, schedule: Q01DX001 (ip), vehicle: saline) was 98 % of control, the T/C (endpoint: mean survival time, dose: 10.0 mg/kg/injection, schedule: Q01DX001 (ip), vehicle: saline) was 102 % of control and the T/C (endpoint: mean survival time, dose: 20.0 mg/kg/injection, schedule: Q01DX001 (ip), vehicle: saline) was 114 % of control. For the same molecule, the T/C (endpoint: mean survival time, dose: 40.0 mg/kg/injection, schedule: Q01DX001 (ip), vehicle: saline) was 117 % of control.
